# pIC50: −log10 of the molar value.
# Tests used:
# [1] = target: T1, Dual specificity mitogen-activated protein kinase kinase 1 (Homo sapiens, UniProt Q02750)
# Description: Binding affinity to MEK1 (unknown origin) assessed as fluorescence intensity every 0.2 degC at 500 uM at 20 degC to 90 degC by differential screening fluorimetry analysis
# [2] = target: T1, Dual specificity mitogen-activated protein kinase kinase 1; remark: listed apart in the source
# [3] = target: T1, Dual specificity mitogen-activated protein kinase kinase 1; test: Inhibition of MEK1 (unknown origin) using ATP and ERK2 K54R as substrate after 60 to 80 mins by HTRF assay
# T1 sequence (Q02750 whole entry): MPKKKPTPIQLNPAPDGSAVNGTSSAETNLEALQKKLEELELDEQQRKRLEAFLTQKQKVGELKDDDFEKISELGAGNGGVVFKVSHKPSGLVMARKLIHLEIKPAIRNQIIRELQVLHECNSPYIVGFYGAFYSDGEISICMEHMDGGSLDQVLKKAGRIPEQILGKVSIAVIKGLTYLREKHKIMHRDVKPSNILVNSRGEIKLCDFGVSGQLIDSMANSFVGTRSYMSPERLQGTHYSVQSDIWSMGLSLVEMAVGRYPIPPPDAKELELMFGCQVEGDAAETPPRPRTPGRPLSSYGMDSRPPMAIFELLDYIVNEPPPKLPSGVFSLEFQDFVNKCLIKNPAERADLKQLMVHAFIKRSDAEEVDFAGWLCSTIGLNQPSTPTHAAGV
structure (smiles),measurement,setting,value
O=c1[nH]ccc2cc(O[C@@H]3CCCNC3)c(Cl)cc12,ΔTm,[1],0.2 °C
same,RU,[2],0.3
CC1(O)CCN2C(=O)CCc3cccc1c32 (centres undefined),pIC50,[3],4.74
same,ΔTm,[1],3.8 °C

# From ChEMBL document CHEMBL2390900, “The use of virtual screening and differential scanning fluorimetry for the rapid identification of fragments active against MEK1” (Bioorg Med Chem Lett, 2013)
